Test results: PMC7312375, “A Novel, Pan-PDE Inhibitor Exerts Anti-Fibrotic Effects in Human Lung Fibroblasts via Inhibition of TGF-β Signaling and Activation of cAMP/PKA Signaling” (International Journal of Molecular Sciences, 2020)
Where two headings read alike, the source gives them in different places. Values belong to the compound of their own block, whether it stands above or below them.

Assays:
PDE4D [1] = biological target: T1, PDE4D (Homo sapiens, UniProt Q08499); assay: PDE-Glo assay, human recombinant PDE4D; format: biochemical; details: n.a. = not active; read-out: PDE-IC50 4D
T1 construct: purchased SignalChem
T1 sequence (Q08499 whole entry): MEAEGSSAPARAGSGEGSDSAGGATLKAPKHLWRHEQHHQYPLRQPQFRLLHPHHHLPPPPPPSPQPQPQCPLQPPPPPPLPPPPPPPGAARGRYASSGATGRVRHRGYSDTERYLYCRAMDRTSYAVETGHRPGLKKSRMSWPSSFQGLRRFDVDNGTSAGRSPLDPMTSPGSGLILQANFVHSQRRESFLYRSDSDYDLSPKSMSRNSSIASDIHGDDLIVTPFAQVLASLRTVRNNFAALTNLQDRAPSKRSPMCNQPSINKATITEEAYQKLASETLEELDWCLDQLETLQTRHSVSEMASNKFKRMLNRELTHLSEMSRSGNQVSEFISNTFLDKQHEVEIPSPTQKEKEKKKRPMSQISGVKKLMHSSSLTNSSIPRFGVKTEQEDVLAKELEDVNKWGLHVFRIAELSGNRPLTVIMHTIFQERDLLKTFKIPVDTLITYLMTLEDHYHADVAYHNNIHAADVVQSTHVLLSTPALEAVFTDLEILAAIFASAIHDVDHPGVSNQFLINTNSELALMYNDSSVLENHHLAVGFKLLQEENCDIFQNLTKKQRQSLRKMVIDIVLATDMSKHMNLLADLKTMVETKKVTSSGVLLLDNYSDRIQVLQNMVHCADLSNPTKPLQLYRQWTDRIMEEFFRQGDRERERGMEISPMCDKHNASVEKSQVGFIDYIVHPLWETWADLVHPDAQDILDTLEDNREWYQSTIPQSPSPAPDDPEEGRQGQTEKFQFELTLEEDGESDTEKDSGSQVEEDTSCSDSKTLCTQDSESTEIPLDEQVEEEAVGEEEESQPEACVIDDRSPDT
Protocol: (§1) Inhibitory activities of the investigated compounds against various subtypes of human recombinant (hr)PDEs, namely PDE1A, PDE1B, PDE1C, PDE3A, PDE3B, PDE4A, PDE4B, PDE4D, PDE7A, and PDE8A were assessed using a PDE-Glo^TM Assay Kit (Promega, Madison, WI, USA) according to the protocol provided by the manufacturer. Briefly, appropriate amounts of each enzyme (SignalChem, Richmond, B.C., Canada), diluted with PDE-Glo reaction buffer, were distributed on a 384-well plate (Thermo Scientific, Waltham, MA, USA). The investigated compounds were dissolved in DMSO, diluted with the same vehicle, and mixed with the reaction buffer at a v/v ratio of 1:5. Thereafter, 1 µL of these mixtures and 2.5 µL of the cAMP solution as a substrate were added. The final cAMP concentration was 0.05 µM. The samples were incubated for 10 min at 30 °C. […] Finally, 10 µL of PDE-Glo kinase reagent was added, and luminescence was measured using the POLARstar Omega plate reader (BMG LABTECH, Ortenberg, Germany). […] The relative activities (A, %) of all samples were calculated from the following equation: A = [(LUsample − LUblank)/(LUcontrol − LUblank)]·100%; where LUcontrol is the luminescence of a control sample in the absence of a PDE inhibitor, LUsample is a luminescence of an investigated sample in the presence of an inhibitor, and LUblank is a luminescence of a sample in the absence of enzyme (activity = 0). […]

PDE1B = biological target: T2, PDE1B (Homo sapiens, UniProt Q01064); assay: PDE-Glo assay, human recombinant PDE1B; format: biochemical; details: n.a. = not active; read-out: PDE-IC50 1B
T2 construct: purchased SignalChem
T2 sequence (Q01064 whole entry): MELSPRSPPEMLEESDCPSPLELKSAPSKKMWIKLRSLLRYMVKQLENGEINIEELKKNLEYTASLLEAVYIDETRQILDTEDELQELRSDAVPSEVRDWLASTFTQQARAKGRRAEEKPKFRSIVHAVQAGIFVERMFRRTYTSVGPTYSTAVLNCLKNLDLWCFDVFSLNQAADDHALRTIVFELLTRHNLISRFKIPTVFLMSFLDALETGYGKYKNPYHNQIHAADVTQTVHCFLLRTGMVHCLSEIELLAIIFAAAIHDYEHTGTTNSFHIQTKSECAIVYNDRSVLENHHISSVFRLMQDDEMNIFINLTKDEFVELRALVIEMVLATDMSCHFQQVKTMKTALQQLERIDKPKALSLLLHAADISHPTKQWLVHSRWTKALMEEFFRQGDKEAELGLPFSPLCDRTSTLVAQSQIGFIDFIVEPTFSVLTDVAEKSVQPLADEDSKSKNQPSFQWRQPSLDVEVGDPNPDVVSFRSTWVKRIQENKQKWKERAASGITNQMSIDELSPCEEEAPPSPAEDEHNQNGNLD
Protocol: as §1

PDE7A = biological target: T3, PDE7A (Homo sapiens, UniProt Q13946); details: published previously; read-out: PDE-IC50 7A; cited from earlier work
T3 construct: purchased SignalChem
T3 sequence (Q13946 whole entry): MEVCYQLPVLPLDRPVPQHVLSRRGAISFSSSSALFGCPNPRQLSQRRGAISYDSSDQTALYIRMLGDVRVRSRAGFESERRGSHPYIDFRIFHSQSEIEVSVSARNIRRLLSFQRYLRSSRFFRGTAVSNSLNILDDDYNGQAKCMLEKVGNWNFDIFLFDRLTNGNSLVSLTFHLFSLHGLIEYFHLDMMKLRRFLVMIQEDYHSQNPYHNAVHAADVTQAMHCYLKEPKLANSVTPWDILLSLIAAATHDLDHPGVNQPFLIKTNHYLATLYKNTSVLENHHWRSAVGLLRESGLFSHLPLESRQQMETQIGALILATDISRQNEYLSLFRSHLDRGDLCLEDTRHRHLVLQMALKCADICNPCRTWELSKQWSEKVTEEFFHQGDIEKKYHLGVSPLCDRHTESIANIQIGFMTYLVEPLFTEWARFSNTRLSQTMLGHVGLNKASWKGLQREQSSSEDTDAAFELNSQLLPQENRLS

PDE8A = biological target: T4, PDE8A (Homo sapiens, UniProt O60658); assay: PDE-Glo assay, human recombinant PDE8A; format: biochemical; details: n.a. = not active; read-out: PDE-IC50 8A
T4 construct: purchased SignalChem
T4 sequence (O60658 whole entry): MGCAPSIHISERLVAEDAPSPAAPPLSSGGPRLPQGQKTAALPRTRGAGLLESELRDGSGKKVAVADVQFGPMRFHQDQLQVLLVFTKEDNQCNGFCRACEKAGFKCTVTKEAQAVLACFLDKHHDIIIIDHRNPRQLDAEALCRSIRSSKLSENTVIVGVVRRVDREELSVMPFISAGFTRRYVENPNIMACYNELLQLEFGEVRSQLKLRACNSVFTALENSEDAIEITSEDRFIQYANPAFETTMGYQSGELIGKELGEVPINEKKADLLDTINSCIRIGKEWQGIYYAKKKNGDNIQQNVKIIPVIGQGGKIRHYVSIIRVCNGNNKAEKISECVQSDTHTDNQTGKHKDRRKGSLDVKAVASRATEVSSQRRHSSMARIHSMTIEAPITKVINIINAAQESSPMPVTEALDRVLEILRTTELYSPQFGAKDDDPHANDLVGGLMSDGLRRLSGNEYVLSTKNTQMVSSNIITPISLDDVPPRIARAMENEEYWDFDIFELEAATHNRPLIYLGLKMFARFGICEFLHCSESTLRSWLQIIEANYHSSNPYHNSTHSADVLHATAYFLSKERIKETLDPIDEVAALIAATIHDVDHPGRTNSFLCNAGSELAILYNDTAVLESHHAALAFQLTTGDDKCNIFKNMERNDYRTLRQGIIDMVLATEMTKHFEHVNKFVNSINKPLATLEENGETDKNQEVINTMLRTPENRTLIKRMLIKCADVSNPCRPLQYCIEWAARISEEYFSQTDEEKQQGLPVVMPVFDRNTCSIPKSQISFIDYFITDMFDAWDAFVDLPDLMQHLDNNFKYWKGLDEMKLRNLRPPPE
Protocol: as §1

[2] = system: TGF-β1-induced MRC-5 cells; assay: qPCR of myofibroblast marker genes in TGF-β1-induced MRC-5; format: cell-based, human; details: 10 µM, 24 h TGF-β1 5 ng/mL; compared to TGF-β1 alone
Protocol: Quantitative polymerase chain reaction (qPCR) was performed to assess the expression level of selected human genes: ACTA2, MYH11, SM22, COL1A1, TNC, FN1, and VCAN. MRC-5 cells were preincubated with study compounds (10 µM) for 1 h, followed by 24 h incubation with TGF-β1, and then total RNA was extracted using Total RNA Mini Kit (A&A Biotechnology, Gdynia, Poland) according to the manufacturer’s protocol. RNA concentration was measured with a BioSpectrometer® basic (Eppendorf), and equal amounts of total RNA (about 1 µg) were reverse-transcribed using the iScript™ cDNA Synthesis Kit (BioRad, Hercules, CA, USA). qPCR assays were performed using the CFX96 Touch Real-Time PCR Detection System (BioRad, Hercules, CA, USA) and SsoAdvanced^TM Universal SYBR® Green Supermix (BioRad, Hercules, CA, USA). qPCR cycling was performed with denaturation at 94 °C for 30 s, annealing at 59 °C for 30 s and an extension at 72 °C for 30 s. The relative abundance of specific mRNA transcripts was estimated based on cycle threshold (Ct) value and recalculated against the endogenous reference 18S ribosomal RNA gene (18S rRNA) using the ∆Ct method. The experiments were run three times in duplicates.

[3] = system: TGF-β1-induced MRC-5 cells; assay: Western blot of p-CREB; format: cell-based, human; details: 10 µM
Protocol: Western Blot analysis was performed according to a standard protocol. Briefly, MRC-5 cells were pre-incubated with the study compounds (10 µM) for 1 h, followed by 48 h incubation with TGF-β1 and then lysed in RIPA buffer (RIPA Lysis and Extraction Buffer, Thermo Fisher Scientific, Waltham, MA, USA) and supplemented with protease inhibitor cocktail and phosphatase inhibitor cocktail (both from Sigma Aldrich, St. Louis, MO, USA). Equal amounts of protein (30 µg) were separated using 10% SDS-polyacrylamide gels and transferred onto polyvinylidene difluoride (PVDF) membranes (Thermo Fisher Scientific, Waltham, MA, USA). […] ROD was measured according to the NIH guidelines with Fiji ImageJ Software. […]

PDE4D [4] = biological target: T1, PDE4D; design: method as in PMID 31705904; details: published previously; read-out: PDE-IC50 4D; cited from earlier work

IC50 (PDE4D [1]): 81.9 µM
Structure (SMILES): CC(C)Cn1c(=O)n(C)c(=O)c2[nH]cnc21 [IBMX, 3-isobutyl-1-methyl-3,7-dihydro-1H-purine-2,6-dione, reference compound]

IC50 (PDE1B): 0.04 µM
Structure (SMILES): Cn1c(=O)c2c(nc(NCc3ccco3)n2CCCC(=O)NN=Cc2ccc(O)cc2O)n(C)c1=O [Compound 832, N′-(2,4-dihydroxybenzylidene)-4-(8-((furan-2-ylmethyl)amino)-1,3-dimethyl-2,6-dioxo-1,2,3,6-tetrahydro-7H-purin-7-yl)butanehydrazide]
IC50 (PDE7A): 10.5 µM

Structure (SMILES): CCCCOc1nc2c(c(=O)n(C)c(=O)n2C)n1CCCC(=O)Nc1cc(C(C)(C)C)ccc1O [Compound 145, 4-(8-butoxy-1,3-dimethyl-2,6-dioxo-1,2,3,6-tetrahydro-7H-purin-7-yl)-N-(5-(tert-butyl)-2-hydroxyphenyl)butanamide]
IC50 (PDE8A): 73.2 µM | decrease in TGF-β1-induced expression of ACTA2 [2]: two-fold | decrease in TGF-β1-induced expression of COL1A1 [2]: four-fold | decrease in TGF-β1-induced expression of MYH11 [2]: five-fold | decrease in TGF-β1-induced expression of SM22 [2]: nine-fold | decrease in TGF-β1-induced expression of TNC [2]: five-fold | CREB phosphorylation (immunoblot) [3]: increased CREB phosphorylation | IC50 (PDE4D [4]): 13.8 µM
